Non-standard residues stand in square brackets, D forms with d. Residues, ends and D or L forms follow the SMILES beside them. 1Nal = N[C@@H](Cc1cccc2ccccc12)C(=O)O; β3hI = CC[C@H](C)[C@H](N)CC(=O)O; β3hR = N=C(N)NCCC[C@H](N)CC(=O)O; Nle = CCCC[C@H](N)C(=O)O; Aib = CC(C)(N)C(=O)O
How the values were obtained:
human PTH-2 receptor = biological target: T1, human PTH-2 receptor (Homo sapiens, UniProt P49190); test: Luciferase-based transcriptional reporter gene assay for selectivity; type: cell-based
T1 construct: expressed in transfected cells
Method in brief: (§1)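 HEK-293 cells transiently transfected with SV40-driven human PTH-1 receptor and CRE-luciferase reporter, exposed to serial compound dilutions for 4-5 h, then lysed for luciferase readout; efficacy and EC50 by non-linear regression, PTH (1-34) as internal control, n≥3. Selectivity measured in analogous human PTH-2 receptor luciferase reporter assays.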

human PTH-1 receptor = biological target: T2, human PTH-1 receptor (Homo sapiens, UniProt Q03431); test: Reporter gene assay (CRE-luciferase) for agonist activity in transiently transfected HEK-293 cells; type: cell-based; details: for hPTHR-2/hPTHR-1: Table 3, selectivity for hPTH-1 receptor over hPTH-2 receptor
T2 construct: expressed in transfected cells; host or cells: HEK-293
T2 sequence (Q03431 27-593): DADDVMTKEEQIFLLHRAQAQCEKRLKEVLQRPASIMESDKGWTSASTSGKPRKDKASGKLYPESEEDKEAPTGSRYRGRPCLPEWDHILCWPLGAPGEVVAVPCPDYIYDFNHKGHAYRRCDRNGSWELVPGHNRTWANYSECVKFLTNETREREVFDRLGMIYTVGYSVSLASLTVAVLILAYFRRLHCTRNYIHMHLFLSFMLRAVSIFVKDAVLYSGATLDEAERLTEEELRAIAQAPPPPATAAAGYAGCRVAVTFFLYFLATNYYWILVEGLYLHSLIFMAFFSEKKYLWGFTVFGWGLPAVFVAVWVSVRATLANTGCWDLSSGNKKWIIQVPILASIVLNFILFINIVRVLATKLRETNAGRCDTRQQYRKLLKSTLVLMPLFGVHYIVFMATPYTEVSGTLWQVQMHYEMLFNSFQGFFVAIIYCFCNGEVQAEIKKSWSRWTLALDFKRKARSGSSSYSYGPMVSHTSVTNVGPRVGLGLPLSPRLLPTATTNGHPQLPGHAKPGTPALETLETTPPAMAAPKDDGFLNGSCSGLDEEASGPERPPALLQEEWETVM
Method in brief: as §1

T1 sequence (P49190 25-550): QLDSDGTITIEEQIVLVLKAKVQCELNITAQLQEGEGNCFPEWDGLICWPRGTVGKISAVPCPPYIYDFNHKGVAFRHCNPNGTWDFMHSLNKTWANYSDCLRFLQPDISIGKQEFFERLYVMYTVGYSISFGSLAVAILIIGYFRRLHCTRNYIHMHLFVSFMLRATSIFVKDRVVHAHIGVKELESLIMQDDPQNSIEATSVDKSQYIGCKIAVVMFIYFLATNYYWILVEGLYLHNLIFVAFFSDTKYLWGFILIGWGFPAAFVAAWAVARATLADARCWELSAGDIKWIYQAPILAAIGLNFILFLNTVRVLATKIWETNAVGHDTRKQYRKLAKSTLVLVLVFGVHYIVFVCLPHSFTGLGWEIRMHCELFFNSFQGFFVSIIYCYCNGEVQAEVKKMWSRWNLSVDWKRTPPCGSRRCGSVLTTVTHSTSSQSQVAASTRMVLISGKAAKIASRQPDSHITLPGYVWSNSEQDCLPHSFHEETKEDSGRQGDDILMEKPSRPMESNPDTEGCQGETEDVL

| Compound | EC50 (human PTH-2 receptor) [nM] | EC50 (human PTH-1 receptor) [nM] | hPTHR-2/hPTHR-1 (human PTH-1 receptor; ratio of EC50 values) | Selectivity hPTHR-2/hPTHR-1 (human PTH-1 receptor; Table 4 comparison data, ratio of EC50 values) |
| --- | --- | --- | --- | --- |
| CCCC[C@H](NC(=O)[C@H](CC(C)C)NC(=O)[C@H](CCC(N)=O)NC(=O)[C@@H](NC(=O)[C@H](CCC(=O)O)NC(=O)[C@H](CO)NC(=O)[C@@H](NC(=O)C(C)(C)N)C(C)C)[C@@H](C)CC)C(=O)N[C@@H](Cc1c[nH]cn1)C(=O)N[C@@H](CO)C(=O)N[C@@H](CC(C)C)C(=O)NCC(=O)N[C@@H](CCCCN)C(=O)N[C@@H](Cc1c[nH]cn1)C(=O)N[C@@H](CC(C)C)C(=O)N[C@@H](CCCCN)C(=O)N[C@@H](CO)C(=O)N[C@H](CC(=O)N[C@@H](CCC(=O)O)C(=O)N[C@@H](CCCNC(=N)N)C(=O)N[C@H](C(=O)N[C@@H](CCC(=O)O)C(=O)N[C@@H](Cc1cccc2ccccc12)C(=O)N[C@@H](CC(C)C)C(=O)N[C@@H](CCCNC(=N)N)C(=O)N[C@@H](CCCCN)C(=O)N[C@@H](CC(C)C)C(=O)N[C@@H](CC(C)C)C(=O)N[C@@H](CCC(N)=O)C(=O)N[C@@H](CCCNC(=N)N)C(=O)N[C@H](C(=O)N[C@@H](Cc1c[nH]cn1)C(=O)N[C@@H](CCC(=O)O)C(=O)N[C@@H](Cc1ccccc1)C(N)=O)C(C)C)C(C)C)[C@@H](C)CC [SEQ ID NO: 38, [Aib^1, Nle^8, Ser^10, Lys^16, β-hIle^18,1-Nal^23, Leu^27, Arg^30, Glu^33] hPTH (1-34)-NH2] (H-[Aib]VSEIQL[Nle]HSLGKHLKS[β3hI]ERVE[1Nal]LRKLLQRVHEF-NH2) | 6 | 0.09 | 61 |  |
| CCCC[C@H](NC(=O)[C@H](CC(C)C)NC(=O)[C@H](CCC(N)=O)NC(=O)[C@@H](NC(=O)[C@H](CCC(=O)O)NC(=O)[C@H](CO)NC(=O)[C@@H](NC(=O)C(C)(C)N)C(C)C)[C@@H](C)CC)C(=O)N[C@@H](Cc1c[nH]cn1)C(=O)N[C@@H](CC(N)=O)C(=O)N[C@@H](CC(C)C)C(=O)NCC(=O)N[C@@H](CCCCN)C(=O)N[C@@H](Cc1c[nH]cn1)C(=O)N[C@@H](CC(C)C)C(=O)N[C@@H](CCCCN)C(=O)N[C@@H](CO)C(=O)N[C@H](CC(=O)N[C@@H](CCC(=O)O)C(=O)N[C@@H](CCCNC(=N)N)C(=O)N[C@H](C(=O)N[C@@H](CCC(=O)O)C(=O)N[C@@H](Cc1cccc2ccccc12)C(=O)N[C@@H](CC(C)C)C(=O)N[C@@H](CCCNC(=N)N)C(=O)N[C@@H](CCCCN)C(=O)N[C@@H](CC(C)C)C(=O)N[C@@H](CC(C)C)C(=O)N[C@@H](CCC(N)=O)C(=O)N[C@@H](CCCNC(=N)N)C(=O)N[C@H](C(=O)N[C@@H](Cc1c[nH]cn1)C(=O)N[C@@H](CCC(=O)O)C(=O)N[C@@H](Cc1ccccc1)C(N)=O)C(C)C)C(C)C)[C@@H](C)CC [SEQ ID NO: 39, [Aib^1, Nle^8, Lys^16, β-hIle^18,1-Nal^23, Leu^27, Arg^30, Glu^33] hPTH (1-34)-NH2] (H-[Aib]VSEIQL[Nle]HNLGKHLKS[β3hI]ERVE[1Nal]LRKLLQRVHEF-NH2; N-terminus assumed) | 6 | 0.09 | 61 |  |
| CCCC[C@H](NC(=O)[C@H](CC(C)C)NC(=O)[C@H](CCC(N)=O)NC(=O)[C@@H](NC(=O)[C@H](CCC(=O)O)NC(=O)[C@H](CO)NC(=O)[C@@H](NC(=O)[C@@H](N)CO)C(C)C)[C@@H](C)CC)C(=O)N[C@@H](Cc1c[nH]cn1)C(=O)N[C@@H](CC(N)=O)C(=O)N[C@@H](CC(C)C)C(=O)NCC(=O)N[C@@H](CCCCN)C(=O)N[C@@H](Cc1c[nH]cn1)C(=O)N[C@@H](CC(C)C)C(=O)N[C@@H](CCCCN)C(=O)N[C@@H](CO)C(=O)N[C@H](CC(=O)N[C@@H](CCC(=O)O)C(=O)N[C@@H](CCCNC(=N)N)C(=O)N[C@H](C(=O)N[C@@H](CCC(=O)O)C(=O)N[C@@H](Cc1cccc2ccccc12)C(=O)N[C@@H](CC(C)C)C(=O)N[C@@H](CCCNC(=N)N)C(=O)N[C@@H](CCCCN)C(=O)N[C@@H](CC(C)C)C(=O)N[C@@H](CC(C)C)C(=O)N[C@@H](CCC(N)=O)C(=O)N[C@@H](CCCNC(=N)N)C(=O)N[C@H](C(=O)N[C@@H](Cc1c[nH]cn1)C(=O)N[C@@H](CCC(=O)O)C(=O)N[C@@H](Cc1ccccc1)C(N)=O)C(C)C)C(C)C)[C@@H](C)CC [SEQ ID NO: 41, [Nle^8, Lys^16, β-hIle^18,1-Nal^23, Leu^27, Arg^30, Glu^33] hPTH (1-34)-NH2] (H-SVSEIQL[Nle]HNLGKHLKS[β3hI]ERVE[1Nal]LRKLLQRVHEF-NH2) | 14 | 0.09 | 157 |  |
| CCCC[C@H](NC(=O)[C@H](CC(C)C)NC(=O)[C@H](CCC(N)=O)NC(=O)[C@@H](NC(=O)[C@H](CCC(=O)O)NC(=O)[C@H](CO)NC(=O)[C@@H](NC(=O)C(C)(C)N)C(C)C)[C@@H](C)CC)C(=O)N[C@@H](Cc1c[nH]cn1)C(=O)N[C@@H](CC(N)=O)C(=O)N[C@@H](CC(C)C)C(=O)NCC(=O)N[C@@H](CCCCN)C(=O)N[C@@H](Cc1c[nH]cn1)C(=O)N[C@@H](CC(C)C)C(=O)N[C@@H](CC(N)=O)C(=O)N[C@@H](CO)C(=O)N[C@@H](CCCNC(=N)N)CC(=O)N[C@@H](CCC(=O)O)C(=O)N[C@@H](CCCNC(=N)N)C(=O)N[C@H](C(=O)N[C@@H](CCC(=O)O)C(=O)N[C@@H](Cc1cccc2ccccc12)C(=O)N[C@@H](CC(C)C)C(=O)N[C@@H](CCCNC(=N)N)C(=O)N[C@@H](CCCCN)C(=O)N[C@@H](CC(C)C)C(=O)N[C@@H](CC(C)C)C(=O)N[C@@H](CCC(N)=O)C(=O)N[C@@H](CC(=O)O)C(=O)N[C@H](C(=O)N[C@@H](Cc1c[nH]cn1)C(=O)N[C@@H](CC(N)=O)C(=O)N[C@@H](Cc1ccccc1)C(N)=O)C(C)C)C(C)C [SEQ ID NO: 43, [Aib^1, Nle^8, β-hArg^18,1-Nal^23, Leu^27] hPTH (1-34)-NH2] (H-[Aib]VSEIQL[Nle]HNLGKHLNS[β3hR]ERVE[1Nal]LRKLLQDVHNF-NH2) | 16 | 0.05 | 312 | 312 |
| CCCC[C@H](NC(=O)[C@H](CC(C)C)NC(=O)[C@H](CCC(N)=O)NC(=O)[C@@H](NC(=O)[C@H](CCC(=O)O)NC(=O)[C@H](CO)NC(=O)[C@@H](NC(=O)[C@@H](N)CO)C(C)C)[C@@H](C)CC)C(=O)N[C@@H](Cc1c[nH]cn1)C(=O)N[C@@H](CO)C(=O)N[C@@H](CC(C)C)C(=O)NCC(=O)N[C@@H](CCCCN)C(=O)N[C@@H](Cc1c[nH]cn1)C(=O)N[C@@H](CC(C)C)C(=O)N[C@@H](CCCCN)C(=O)N[C@@H](CO)C(=O)N[C@H](CC(=O)N[C@@H](CCC(=O)O)C(=O)N[C@@H](CCCNC(=N)N)C(=O)N[C@H](C(=O)N[C@@H](CCC(=O)O)C(=O)N[C@@H](Cc1cccc2ccccc12)C(=O)N[C@@H](CC(C)C)C(=O)N[C@@H](CCCNC(=N)N)C(=O)N[C@@H](CCCCN)C(=O)N[C@@H](CC(C)C)C(=O)N[C@@H](CC(C)C)C(=O)N[C@@H](CCC(N)=O)C(=O)N[C@@H](CCCNC(=N)N)C(=O)N[C@H](C(=O)N[C@@H](Cc1c[nH]cn1)C(=O)N[C@@H](CCC(=O)O)C(=O)N[C@@H](CCC(=O)O)C(N)=O)C(C)C)C(C)C)[C@@H](C)CC [SEQ ID NO: 44, [Nle^8, Ser^10, Lys^16, β-hIle^18,1-Nal^23, Leu^27, Arg^30, Glu^33, Glu^34] hPTH (1-34)-NH2] (H-SVSEIQL[Nle]HSLGKHLKS[β3hI]ERVE[1Nal]LRKLLQRVHEE-NH2) | 6 | 0.04 | 154 |  |
| CCCC[C@H](NC(=O)[C@H](CC(C)C)NC(=O)[C@H](CCC(N)=O)NC(=O)[C@@H](NC(=O)[C@H](CCC(=O)O)NC(=O)[C@H](CO)NC(=O)[C@@H](NC(=O)C(C)(C)N)C(C)C)[C@@H](C)CC)C(=O)N[C@@H](Cc1c[nH]cn1)C(=O)N[C@@H](CO)C(=O)N[C@@H](CC(C)C)C(=O)NCC(=O)N[C@@H](CCCCN)C(=O)N[C@@H](Cc1c[nH]cn1)C(=O)N[C@@H](CC(C)C)C(=O)N[C@@H](CCCCN)C(=O)N[C@@H](CO)C(=O)N[C@H](CC(=O)N[C@@H](CCC(=O)O)C(=O)N[C@@H](CCCNC(=N)N)C(=O)N[C@H](C(=O)N[C@@H](CCC(=O)O)C(=O)N[C@@H](Cc1cccc2ccccc12)C(=O)N[C@@H](CC(C)C)C(=O)N[C@@H](CCCNC(=N)N)C(=O)N[C@@H](CCCCN)C(=O)N[C@@H](CC(C)C)C(=O)N[C@@H](CC(C)C)C(=O)N[C@@H](CCC(N)=O)C(=O)N[C@@H](CCCNC(=N)N)C(=O)N[C@H](C(N)=O)C(C)C)C(C)C)[C@@H](C)CC [SEQ ID NO: 45, [Aib^1, Nle^8, Ser^10, Lys^16, β-hIle^18,1-Nal^23, Leu^27, Arg^30] hPTH (1-31)-NH2] (H-[Aib]VSEIQL[Nle]HSLGKHLKS[β3hI]ERVE[1Nal]LRKLLQRV-NH2) | 6 | 0.09 | 72 |  |

Source: patent publication US20110195900A1, “PEPTIDIC PTH RECEPTOR AGONISTS” (FERRING B.V., priority 2008, published 2011)
